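Interpolation was linear, between the two tested concentrations surrounding the appropriate level; five concentrations were tested over 48 hours in 96-well plates. GI50 = concentration required for 50% inhibition of growth. TGI is the concentration that stops growth completely.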
How the values were obtained:
Test in all cases: NCI anticancer screen, dose series, 48 h
[1] = tested on: HT29 colon
[2] = tested on: SNB-19 CNS
[3] = tested on: LOX IMVI melanoma
[4] = tested on: SW-620 colon
[5] = tested on: UACC-257 melanoma
[6] = tested on: HCT-116 colon
[7] = tested on: UACC-62 melanoma
[8] = tested on: SN12C renal
[9] = tested on: SF-295 CNS
[10] = tested on: U251 CNS
[11] = tested on: 786-0 renal
[12] = tested on: MOLT-4 leukemia
[13] = tested on: HOP-92 NSCLC
[14] = tested on: NCI-H226 lung
[15] = tested on: OVCAR-5 ovarian
[16] = tested on: M14 melanoma
[17] = tested on: PC-3 prostate
[18] = tested on: KM12 colon
[19] = tested on: SK-MEL-5 melanoma
[20] = tested on: HCT-15 colon
[21] = tested on: CAKI-1 renal
[22] = tested on: RXF 393 renal
[23] = tested on: SK-MEL-28 melanoma
[24] = tested on: EKVX NSCLC
[25] = tested on: A549 NSCLC
[26] = tested on: NCI/ADR-RES ovarian
[27] = tested on: K-562 leukemia
[28] = tested on: HOP-62 NSCLC
[29] = tested on: OVCAR-8 ovarian
[30] = tested on: SF-268 CNS
[31] = tested on: HCC-2998 colon
[32] = tested on: COLO 205 colon
[33] = tested on: TK-10 renal
[34] = tested on: NCI-H460 lung
[35] = tested on: HS 578T breast
[36] = tested on: MDA-MB-435
[37] = tested on: RPMI-8226 leukemia
[38] = tested on: OVCAR-3 ovarian
[39] = tested on: T-47D breast
[40] = tested on: BT-549 breast
[41] = tested on: MCF7 breast
[42] = tested on: ACHN renal
[43] = tested on: HL-60(TB) leukemia

COC(=O)C1=C(O)[C@H](C(=O)OC)[C@]2(O)[C@@H](C(=O)OC)[C@H]1C[C@@H](c1ccc(OC(=O)/C=C/c3ccco3)cc1)[C@@H]2C(=O)OC
GI50 [1]: 11.5 µM
TGI [1]: > 100 µM
GI50 [2]: 22.6 µM
TGI [2]: 87.5 µM
GI50 [3]: 1.59 µM
TGI [3]: 3.17 µM
GI50 [4]: 36.3 µM
TGI [4]: > 100 µM
GI50 [5]: 65.5 µM
TGI [5]: > 100 µM
GI50 [6]: 4.9 µM
TGI [6]: 17.6 µM
GI50 [7]: 4.09 µM
TGI [7]: 18.9 µM
GI50 [8]: 22.4 µM
TGI [8]: 52.3 µM
GI50 [9]: 19.6 µM
TGI [9]: 65.2 µM
GI50 [10]: 10.3 µM
TGI [10]: 23.8 µM
GI50 [11]: 11.8 µM
TGI [11]: 30.6 µM
GI50 [12]: 1.29 µM
TGI [12]: 6.67 µM
GI50 [13]: 18.1 µM
TGI [13]: 48.3 µM
GI50 [14]: 15.8 µM
TGI [14]: 37.1 µM
GI50 [15]: 19.1 µM
TGI [15]: 43.3 µM
GI50 [16]: 10.7 µM
TGI [16]: 23.2 µM
GI50 [17]: 21.5 µM
TGI [17]: 88.3 µM
GI50 [18]: 43.7 µM
TGI [18]: > 100 µM
GI50 [19]: 27.1 µM
TGI [19]: 94.4 µM
GI50 [20]: 6.22 µM
TGI [20]: 24 µM
GI50 [21]: 27 µM
TGI [21]: 86.8 µM
GI50 [22]: 41.6 µM
TGI [22]: > 100 µM
GI50 [23]: 29.1 µM
TGI [23]: > 100 µM
GI50 [24]: 21.9 µM
TGI [24]: 49.1 µM
GI50 [25]: 30.5 µM
TGI [25]: > 100 µM
GI50 [26]: 12.3 µM
TGI [26]: 32.2 µM
GI50 [27]: 19.7 µM
TGI [27]: > 100 µM
GI50 [28]: 15.7 µM
TGI [28]: 30.5 µM
GI50 [29]: 42.4 µM
TGI [29]: > 100 µM
GI50 [30]: 40.8 µM
TGI [30]: > 100 µM
GI50 [31]: 7 µM
TGI [31]: 19.3 µM
GI50 [32]: 15 µM
TGI [32]: 87.9 µM
GI50 [33]: 47.1 µM
TGI [33]: > 100 µM
GI50 [34]: 33 µM
TGI [34]: > 100 µM
GI50 [35]: > 100 µM
TGI [35]: > 100 µM
GI50 [36]: 21.7 µM
TGI [36]: 66.8 µM
GI50 [37]: 0.293 µM
TGI [37]: 57.5 µM
GI50 [38]: 27.6 µM
TGI [38]: 82.5 µM
GI50 [39]: > 100 µM
TGI [39]: > 100 µM
GI50 [40]: 22.5 µM
TGI [40]: 49.4 µM
GI50 [41]: 40.5 µM
TGI [41]: > 100 µM
GI50 [42]: 14.4 µM
TGI [42]: 28.7 µM
GI50 [43]: 13.9 µM
TGI [43]: 75.1 µM

— PubChem BioAssay (NCI)
